Data: patent US9688666B2, “Lamivudine salts” (Tobira Therapeutics, Inc., priority 2013, dated 2017)

Assays:
Format in all cases: physicochemical
[1] = Gravimetric vapor sorption (GVS), hygroscopicity; conditions: 25 degrees C, relative humidity 0% to 90% in 10% RH increments
Text: A crystalline form can be characterized by gravimetric vapor sorption (GVS). A GVS plot can be a graph of weight gain or loss against relative humidity. The total weight gain or loss is often reported as a weight percent (wt %), the value of which allows for and includes an appropriate margin of error that can be represented by the symbol “±.” For example, a weight change of about 2.0±0.5% can refer to a range from about 2+0.5%, that is, 2.5%, to about […], that is, about 1.5%. Depending on the sample preparation technique, the calibration technique applied to the instrument, human operation variation, the nature of the particular instrument being used, and other factors known to the art, the appropriate margin of error for a weight gain or loss can be about ±2%, about ±1%, about ±0.75%, about ±0.5%, about ±0.25%, or less. Among other things, GVS can be useful for determining whether a crystalline form changes upon exposure to humidity.
Gravimetric vapor sorption plots were obtained on an ‘Iga Sorp’ vapor sorption balance manufactured by Hidden Analytical Instruments, which was calibrated according to manufacturer recommendations. Samples were dried by maintaining a 0% humidity until no additional weight change was measured. […] After equilibration, the weight change was measured, and the RH was then increased by 10% following the above-described equilibration procedure. […]

[2] = Storage stability at ambient temperature and humidity, XRPD before and after; conditions: stored in a cupboard at ambient temperature and humidity for 16 weeks
Procedure: A sample of lamivudine hydrochloride polymorph Form II was analyzed by XRPD, and then stored in a cupboard at ambient temperature and humidity for 16 weeks, after which the sample was re-analyzed by XRPD. FIG. 32 compares the XRPD pattern obtained before storage (top pattern) and after 16 weeks of storage (middle pattern) with the XRPD pattern of lamivudine hydrochloride polymorph Form I obtained by the method of Example 1 (bottom pattern).

[3] = Competitive slurry of Form I/Form II mixture, product examined by XRPD; conditions: 20 mg Form I + 20 mg Form II suspended in 400 μL acetone or 400 μL isopropanol, shaken at ambient temperature for 72 hours; same result in both cases
Procedure: A first mixture of 20 mg lamivudine hydrochloride polymorph Form I and 20 mg lamivudine hydrochloride polymorph Form II was suspended in 400 μL of acetone, and a second mixture of 20 mg lamivudine hydrochloride polymorph Form I and 20 mg lamivudine hydrochloride polymorph Form II was suspended in 400 μL isopropanol. Both mixtures were shaken at ambient temperature for 72 hours, after which the resulting product was examined by XRPD. In both cases, the resulting product an XRPD diffraction pattern substantially similar to that of FIG. 6.

Compound	GVS reversible weight gain [1]	solid form stability on storage (XRPD) [2]	relative thermodynamic stability of polymorphs (form of product by XRPD) [3]
Cl.Nc1ccn([C@@H]2CS[C@H](CO)O2)c(=O)n1 [listing 1 of 2 here]	≤ 1%	–	–
Cl.Nc1ccn([C@@H]2CS[C@H](CO)O2)c(=O)n1 [listing 2 of 2 here]	–	spontaneously converting to lamivudine hydrochloride polymorph Form I after 16 weeks of storage	less thermodynamically stable than, and transforming into, lamivudine hydrochloride polymorph Form I
